Measurements reported in ChEMBL document CHEMBL1135516, “Three-dimensional quantitative structure-activity relationship analysis of ligand binding to human sequence antidigoxin monoclonal antibodies using comparative molecular field analysis” (J Med Chem, 2002).
Calls of active or inactive are those of the source. No cut-off for these calls is given here.

Columns and labels:
[1] = tested on: Monoclonal antibody (mAb); assay: Binding affinity against human monoclonal antibody (mAb)-1B3
[2] = tested on: Monoclonal antibody (mAb); assay: Binding affinity against human monoclonal antibody (mAb)-11E6
[3] = tested on: Monoclonal antibody (mAb); assay: Binding affinity against human monoclonal antibody (mAb)-7F2
[4] = tested on: Monoclonal antibody (mAb); assay: Binding affinity against human monoclonal antibody (mAb)-5C2
[5] = tested on: Monoclonal antibody (mAb); assay: Binding affinity against murine monoclonal antibody (mAb)-40-50

SMILES	IC50 ratio [1]	IC50 ratio [2]	IC50 ratio [3]	IC50 ratio [4]	Relative Ki [5]
C[C@]12CC[C@H]3[C@@H](CCC4=CC(=O)CC[C@@]43C)[C@@H]1CC[C@@H]2O	inactive	110	100	120	
C[C@H]1O[C@@H](O[C@H]2[C@@H](O)C[C@H](O[C@H]3[C@@H](O)C[C@@H](O[C@H]4CC[C@@]5(C)[C@H](CC[C@@H]6[C@@H]5C[C@@H](O)[C@]5(C)[C@@H](C7=CC(=O)OC7)[C@@H](O)C[C@]65O)C4)O[C@@H]3C)O[C@@H]2C)C[C@H](O)[C@@H]1O					33
C[C@H]1O[C@@H](O[C@@H]2CC[C@@]3(O)CC[C@@H]4[C@H](CC[C@]5(C)[C@@H](C6=CC(=O)OC6)CC[C@]45O)[C@@]3(C=O)C2)C[C@H](O)[C@@H]1O	6200	2500	2100	3000	
CC(=O)O[C@H]1C[C@H](O[C@H]2CC[C@@]3(C)[C@H](CC[C@@H]4[C@@H]3C[C@@H](O)[C@]3(C)C(C5=CC(=O)OC5)CC[C@]43O)C2)O[C@H](C)[C@H]1O[C@H]1C[C@H](O)[C@H](O[C@H]2C[C@H](O)[C@H](O)[C@@H](C)O2)[C@@H](C)O1 (some centres not stated)	0.9	1.5	1	0.9	
C[C@]12C[C@H](O)[C@H]3[C@@H](CCC4=CC(=O)CC[C@@]43C)[C@@H]1CC[C@@H]2C(=O)CO	14000	970	390	420	
C[C@]12CC[C@@H](O)C[C@@H]1CC[C@@H]1[C@@H]2CC[C@]2(C)C(=O)CC[C@@H]12	inactive	1800	1300	inactive	
CC(=O)O[C@]1(C(C)=O)CC[C@H]2[C@@H]3CCC4=C/C(=N/OCC(=O)O)CC[C@]4(C)[C@H]3CC[C@@]21C	No inhibition		No inhibition		
CO[C@H]1[C@@H](O)[C@@H](C)O[C@@H](O[C@H]2CC[C@@]3(C)[C@H](CC[C@@H]4[C@@H]3CC[C@]3(C)[C@@H](C5=CC(=O)OC5)C(O)C[C@]43O)C2)[C@@H]1O (some centres not stated)					35
C[C@]12C=CC(=O)C=C1CC[C@@H]1[C@@H]2C(=O)C[C@@]2(C)[C@H]1CC[C@]2(O)C(=O)CO	No inhibition	No inhibition	No inhibition	3400	
C[C@]12CC[C@H](O)CC1CC[C@@H]1[C@@H]2CC[C@]2(C)[C@@H](C3=CC(=O)OC3)CC[C@]12O (single isomer, unassigned)	4900	6.7	4.1	3.6	
C[C@H]1O[C@@H](O[C@H]2[C@@H](O)C[C@H](O[C@H]3[C@@H](O)C[C@H](O[C@H]4CC[C@@]5(C)[C@H](CC[C@@H]6[C@@H]5CC[C@]5(C)[C@@H](C7=CC(=O)OC7)[C@@H](OC=O)C[C@]65O)C4)O[C@@H]3C)O[C@@H]2C)C[C@H](O)[C@@H]1O					35
CC(=O)O[C@H]1[C@H]2O[C@]23[C@@H]2CC[C@@H]4C[C@@H](O)CC[C@]4(C)[C@H]2CC[C@]3(C)[C@H]1c1ccc(=O)oc1	98000	800	1700	570	
CC(=O)OCC(=O)[C@@]1(O)CC[C@H]2[C@@H]3CCC4=CC(=O)C=C[C@]4(C)[C@H]3[C@@H](O)C[C@@]21C	No inhibition		12000		
C[C@]12C=CC(=O)C=C1CC[C@@H]1[C@@H]2[C@@H](O)C[C@@]2(C)[C@H]1CC[C@]2(O)C(=O)COC(=O)CCC(=O)O	160000		3400		
C[C@H]1O[C@@H](O[C@H]2[C@@H](O)C[C@H](O[C@H]3[C@@H](O)C[C@H](O[C@H]4CC[C@@]5(C)[C@H](CC[C@@H]6[C@@H]5CC[C@]5(C)[C@H](C7COC(=O)C7)CC[C@]65O)C4)O[C@@H]3C)O[C@@H]2C)C[C@H](O)[C@@H]1O (some centres not stated)	340		1800		
CC(=O)O[C@H]1C[C@H](O[C@H]2[C@@H](O)C[C@H](O[C@H]3[C@@H](O)C[C@H](O[C@H]4CC[C@@]5(C)[C@H](CC[C@@H]6[C@@H]5CC[C@]5(C)[C@@H](C7=CC(=O)OC7)CC[C@]65O)C4)O[C@@H]3C)O[C@@H]2C)O[C@H](C)[C@H]1O	3.9	20	25	48	
CO[C@@H]1[C@H](O)[C@@H](O[C@@H]2C[C@H]3CC[C@@H]4[C@H](CC[C@]5(C)[C@@H](C6=CC(=O)OC6)CC[C@]45O)[C@@]3(C)[C@H](O)C2)O[C@@H](C)[C@@H]1O					0.5
C[C@]12CC[C@@H]3c4ccc(O)cc4CC[C@H]3[C@@H]1CC[C@@H]2O	inactive	inactive	inactive	inactive	
C[C@H]1O[C@@H](O[C@H]2[C@@H](O)C[C@H](O[C@H]3CC[C@@]4(C)[C@H](CC[C@@H]5[C@@H]4C[C@@H](O)[C@]4(C)[C@@H](C6=CC(=O)OC6)CC[C@]54O)C3)O[C@@H]2C)C[C@H](O)[C@@H]1O	1.6	0.9	1	1.3	
C[C@]12CCC(=O)C=C1CC[C@@H]1[C@@H]2C(=O)C[C@@]2(C)[C@H]1CC[C@]2(O)C(=O)CO	No inhibition	No inhibition	No inhibition	No inhibition	

SMILES	IC50 ratio [1]	IC50 ratio [2]	IC50 ratio [3]	IC50 ratio [4]	Relative Ki [5]
CC(=O)O[C@H]1C[C@H](O[C@H]2[C@@H](O)C[C@H](O[C@H]3[C@@H](O)C[C@H](O[C@H]4CC[C@@]5(C)[C@H](CC[C@@H]6[C@@H]5C[C@@H](O)[C@]5(C)[C@@H](C7=CC(=O)OC7)CC[C@]65O)C4)O[C@@H]3C)O[C@@H]2C)O[C@H](C)[C@H]1O[C@@H]1O[C@H](CO)[C@@H](O)[C@H](O)[C@H]1O	1.6	1.6	1.4	1.1	
CO[C@H]1C(O)[C@H](O[C@H]2CC[C@@]3(C)[C@H](CC[C@@H]4[C@@H]3CC[C@]3(C)[C@@H](C5=CC(=O)OC5)CC[C@]43O)C2)O[C@@H](C)[C@@H]1O[C@@H]1O[C@H](CO[C@@H]2O[C@H](CO)[C@@H](O)[C@H](O)[C@H]2O)[C@@H](O)[C@H](O)[C@H]1O (some centres not stated)	97	18	8.6	7.6	
CC(=O)O[C@H]1C[C@]2(O)[C@@H]3CC[C@@H]4C[C@@H](O)CC[C@]4(C)[C@H]3CC[C@]2(C)[C@H]1C1=CC(=O)OC1					8600
CC(=O)O[C@@H]1C[C@H]2[C@@H](CC[C@@H]3C[C@@H](O[C@H]4C[C@H](O)[C@H](O[C@H]5C[C@H](O)[C@H](O[C@H]6C[C@H](O)[C@H](O)[C@@H](C)O6)[C@@H](C)O5)[C@@H](C)O4)CC[C@@]32C)[C@@]2(O)CCC(C3=CC(=O)OC3)[C@@]12C (some centres not stated)					0.5
C[C@]12CC[C@H](O)C[C@H]1CC[C@@H]1[C@@H]2C[C@@H](O)[C@]2(C)[C@@H]([C@@H]3COC(=O)C3)CC[C@]12O					300
C[C@]12CCC(=O)C=C1CC[C@@H]1[C@@H]2[C@@H](O)C[C@@]2(C)[C@H]1CC[C@]2(O)C(=O)CO	No inhibition	3700	1100	650	
C[C@]12CC[C@H]3[C@@H](CC[C@]4(O)C[C@@H](O)CC[C@]34CO)[C@@]1(O)CC[C@@H]2C1=CC(=O)OC1					4
C[C@]12CCC(=O)C=C1CC[C@@H]1[C@@H]2[C@@H](O)C[C@]2(C=O)[C@@H](C(=O)CO)CC[C@@H]12	inactive	760	540	550	
C[C@H]1O[C@@H](O[C@H]2[C@@H](O)C[C@H](O[C@H]3[C@@H](O)C[C@@H](O[C@H]4CC[C@@]5(C)[C@H](CC[C@@H]6[C@@H]5C[C@@H](O)[C@]5(C)[C@@H](C7=CC(=O)OC7)CC[C@]65O)C4)O[C@@H]3C)O[C@@H]2C)C[C@H](O)[C@@H]1O					280
C[C@]12CC[C@H](O)C[C@H]1CC[C@@H]1[C@@H]2CC[C@]2(C)[C@@H](c3ccc(=O)oc3)CC[C@]12O	6700	260	550	250	
C[C@]12CC[C@H](O)CC1=CC[C@@H]1[C@@H]2CC[C@]2(C)C(=O)CC[C@@H]12	No inhibition				
CC(=O)O[C@]1(C(C)=O)CC[C@H]2[C@@H]3C=C(Cl)C4=CC(=O)CC[C@]4(C)[C@H]3CC[C@@]21C	No inhibition		No inhibition		
C[C@H]1O[C@@H](O[C@H]2[C@@H](O)C[C@H](O[C@H]3CC[C@@]4(C)[C@H](CC[C@@H]5[C@@H]4CC[C@]4(C)[C@@H](C6=CC(=O)OC6)CC[C@]54O)C3)O[C@@H]2C)C[C@H](O)[C@@H]1O	4.9	11	14	14	
CC(=O)O[C@H]1CC[C@@]2(C)[C@H](CC[C@@H]3[C@@H]2CC[C@]2(C)[C@@H](C4=CC(=O)OC4)[C@@H](O)C[C@]32O)C1					74
CC1CC(O[C@H]2CC[C@@]3(C)[C@H](CC[C@@H]4[C@@H]3CC[C@]3(C)[C@@H](C5=CC(=O)OC5)CC[C@]43O)C2)CC(O)C1O (some centres not stated)	36	25	29	47	
CC(=O)O[C@H]1C[C@]2(O)[C@@H]3CC[C@@H]4C[C@@H](O[C@H]5C[C@H](O)[C@H](O)[C@@H](C)O5)CC[C@]4(C)[C@H]3CC[C@]2(C)[C@H]1C1=CC(=O)OC1					4
CC(C)CCC[C@@H](C)[C@H]1CC[C@H]2[C@@H]3CC=C4C[C@@H](O)CC[C@]4(C)[C@H]3CC[C@]12C	inactive	inactive	inactive	inactive	
C[C@@H]1O[C@@H](O[C@@H]2C=C3CC[C@@H]4[C@H](CC[C@]5(C)[C@@H](c6ccc(=O)oc6)CC[C@]45O)[C@@]3(C)CC2)[C@H](O)[C@H](O)[C@H]1O	670	800	69	400	
C[C@]12CC[C@@H](O)C[C@H]1CC[C@@H]1[C@@H]2C[C@@H](O)[C@]2(C)[C@@H](C3=CC(=O)OC3)CCC12O (some centres not stated)					12
